In ChEMBL document CHEMBL4270552, “4-(Phenoxy) and 4-(benzyloxy)benzamides as potent and selective inhibitors of mono-ADP-ribosyltransferase PARP10/ARTD10” (Eur J Med Chem, 2018):

What was measured:
[1] = molecular target: Protein mono-ADP-ribosyltransferase PARP9 (Homo sapiens) (UniProt Q8IXQ6)
Description: Stabilization of human ARTD9 expressed in Escherichia coli assessed as change in melting temperature at 100 uM by SYPRO Orange-dye based differential scanning fluorimetric method

[2] = molecular target: T1, Protein mono-ADP-ribosyltransferase PARP12 (Homo sapiens, UniProt Q9H0J9); experiment: Inhibition of N-terminal His-tagged thioredoxin-fused human ARTD12 (469 to 701 residues) expressed in Escherichia coli Rosetta2 (DE3) after 20 hrs in presence of NAD+
T1 sequence (Q9H0J9 whole entry): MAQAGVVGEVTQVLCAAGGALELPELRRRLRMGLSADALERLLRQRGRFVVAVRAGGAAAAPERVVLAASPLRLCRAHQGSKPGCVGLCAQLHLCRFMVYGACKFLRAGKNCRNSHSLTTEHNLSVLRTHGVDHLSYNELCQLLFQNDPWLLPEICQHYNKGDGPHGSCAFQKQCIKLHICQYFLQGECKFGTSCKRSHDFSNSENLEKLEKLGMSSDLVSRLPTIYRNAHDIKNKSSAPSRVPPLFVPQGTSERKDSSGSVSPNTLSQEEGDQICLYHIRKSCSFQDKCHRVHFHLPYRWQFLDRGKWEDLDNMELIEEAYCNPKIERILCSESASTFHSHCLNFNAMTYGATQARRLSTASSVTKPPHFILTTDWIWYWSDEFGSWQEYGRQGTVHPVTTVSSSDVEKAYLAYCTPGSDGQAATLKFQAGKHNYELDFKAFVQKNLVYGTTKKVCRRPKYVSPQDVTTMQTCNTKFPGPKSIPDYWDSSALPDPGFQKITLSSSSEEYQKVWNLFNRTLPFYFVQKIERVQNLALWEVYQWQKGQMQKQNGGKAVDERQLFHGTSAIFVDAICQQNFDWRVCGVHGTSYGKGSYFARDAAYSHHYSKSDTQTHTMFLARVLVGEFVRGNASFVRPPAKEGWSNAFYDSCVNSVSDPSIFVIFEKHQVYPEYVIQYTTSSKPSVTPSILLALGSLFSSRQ

[3] = molecular target: Zinc finger CCCH-type antiviral protein 1 (Homo sapiens) (UniProt Q7Z2W4)
Description: Stabilization of human ARTD13 expressed in Escherichia coli assessed as change in melting temperature at 100 uM by SYPRO Orange-dye based differential scanning fluorimetric method

[4] = molecular target: T2, Protein mono-ADP-ribosyltransferase PARP10 (Homo sapiens) (UniProt Q53GL7)
T2 sequence (whole entry): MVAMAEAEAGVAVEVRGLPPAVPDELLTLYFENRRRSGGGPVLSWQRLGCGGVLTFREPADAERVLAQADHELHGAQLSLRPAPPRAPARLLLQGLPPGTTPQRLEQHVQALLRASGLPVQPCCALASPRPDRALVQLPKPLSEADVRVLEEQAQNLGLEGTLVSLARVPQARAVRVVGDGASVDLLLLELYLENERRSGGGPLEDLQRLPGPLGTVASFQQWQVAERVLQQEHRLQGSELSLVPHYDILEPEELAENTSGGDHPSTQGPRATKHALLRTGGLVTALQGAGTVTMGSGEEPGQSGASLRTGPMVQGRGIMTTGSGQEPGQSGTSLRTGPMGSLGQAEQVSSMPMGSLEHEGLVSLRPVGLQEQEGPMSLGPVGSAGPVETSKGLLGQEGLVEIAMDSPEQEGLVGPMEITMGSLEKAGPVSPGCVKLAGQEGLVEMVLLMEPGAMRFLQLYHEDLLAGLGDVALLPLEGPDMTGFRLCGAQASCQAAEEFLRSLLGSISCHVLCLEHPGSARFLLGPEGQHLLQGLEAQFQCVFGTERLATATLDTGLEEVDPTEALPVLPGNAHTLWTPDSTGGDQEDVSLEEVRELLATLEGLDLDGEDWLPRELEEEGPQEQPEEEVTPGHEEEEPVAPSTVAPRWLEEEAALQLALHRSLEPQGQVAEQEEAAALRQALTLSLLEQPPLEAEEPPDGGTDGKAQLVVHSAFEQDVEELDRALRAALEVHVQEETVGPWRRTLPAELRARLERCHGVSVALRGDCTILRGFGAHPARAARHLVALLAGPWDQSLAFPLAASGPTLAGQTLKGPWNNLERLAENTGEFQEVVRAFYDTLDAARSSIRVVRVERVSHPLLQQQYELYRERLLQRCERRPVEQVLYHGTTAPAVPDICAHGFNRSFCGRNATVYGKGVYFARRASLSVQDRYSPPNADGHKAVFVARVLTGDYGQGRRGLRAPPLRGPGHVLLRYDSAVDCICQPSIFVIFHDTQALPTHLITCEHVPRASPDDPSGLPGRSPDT
Description: Stabilization of C-terminal His-tagged human ARTD10 (809 to 1017 residues) expressed in Escherichia coli Rosetta2 (DE3) assessed as change in melting temperature at 100 uM by SYPRO Orange-dye based differential scanning fluorimetric method

[5] = molecular target: Protein mono-ADP-ribosyltransferase PARP4 (Homo sapiens, UniProt Q9UKK3); experiment: Inhibition of N-terminal His-tagged human ARTD4 (250 to 565 residues) expressed in Escherichia coli Rosetta2 (DE3) using TCEP as substrate after 2.5 hrs in presence of NAD+
[6] = molecular target: T3, Protein mono-ADP-ribosyltransferase PARP10 (Homo sapiens, UniProt Q53GL7); experiment: Inhibition of C-terminal His-tagged human ARTD10 (809 to 1017 residues) expressed in Escherichia coli Rosetta2 (DE3) using SRPK2 as substrate after 13 hrs in presence of NAD+
T3 sequence (Q53GL7 whole entry): T2 sequence (whole entry)

Sequence of Protein mono-ADP-ribosyltransferase PARP4 (Q9UKK3 whole entry, the tested form may be a part): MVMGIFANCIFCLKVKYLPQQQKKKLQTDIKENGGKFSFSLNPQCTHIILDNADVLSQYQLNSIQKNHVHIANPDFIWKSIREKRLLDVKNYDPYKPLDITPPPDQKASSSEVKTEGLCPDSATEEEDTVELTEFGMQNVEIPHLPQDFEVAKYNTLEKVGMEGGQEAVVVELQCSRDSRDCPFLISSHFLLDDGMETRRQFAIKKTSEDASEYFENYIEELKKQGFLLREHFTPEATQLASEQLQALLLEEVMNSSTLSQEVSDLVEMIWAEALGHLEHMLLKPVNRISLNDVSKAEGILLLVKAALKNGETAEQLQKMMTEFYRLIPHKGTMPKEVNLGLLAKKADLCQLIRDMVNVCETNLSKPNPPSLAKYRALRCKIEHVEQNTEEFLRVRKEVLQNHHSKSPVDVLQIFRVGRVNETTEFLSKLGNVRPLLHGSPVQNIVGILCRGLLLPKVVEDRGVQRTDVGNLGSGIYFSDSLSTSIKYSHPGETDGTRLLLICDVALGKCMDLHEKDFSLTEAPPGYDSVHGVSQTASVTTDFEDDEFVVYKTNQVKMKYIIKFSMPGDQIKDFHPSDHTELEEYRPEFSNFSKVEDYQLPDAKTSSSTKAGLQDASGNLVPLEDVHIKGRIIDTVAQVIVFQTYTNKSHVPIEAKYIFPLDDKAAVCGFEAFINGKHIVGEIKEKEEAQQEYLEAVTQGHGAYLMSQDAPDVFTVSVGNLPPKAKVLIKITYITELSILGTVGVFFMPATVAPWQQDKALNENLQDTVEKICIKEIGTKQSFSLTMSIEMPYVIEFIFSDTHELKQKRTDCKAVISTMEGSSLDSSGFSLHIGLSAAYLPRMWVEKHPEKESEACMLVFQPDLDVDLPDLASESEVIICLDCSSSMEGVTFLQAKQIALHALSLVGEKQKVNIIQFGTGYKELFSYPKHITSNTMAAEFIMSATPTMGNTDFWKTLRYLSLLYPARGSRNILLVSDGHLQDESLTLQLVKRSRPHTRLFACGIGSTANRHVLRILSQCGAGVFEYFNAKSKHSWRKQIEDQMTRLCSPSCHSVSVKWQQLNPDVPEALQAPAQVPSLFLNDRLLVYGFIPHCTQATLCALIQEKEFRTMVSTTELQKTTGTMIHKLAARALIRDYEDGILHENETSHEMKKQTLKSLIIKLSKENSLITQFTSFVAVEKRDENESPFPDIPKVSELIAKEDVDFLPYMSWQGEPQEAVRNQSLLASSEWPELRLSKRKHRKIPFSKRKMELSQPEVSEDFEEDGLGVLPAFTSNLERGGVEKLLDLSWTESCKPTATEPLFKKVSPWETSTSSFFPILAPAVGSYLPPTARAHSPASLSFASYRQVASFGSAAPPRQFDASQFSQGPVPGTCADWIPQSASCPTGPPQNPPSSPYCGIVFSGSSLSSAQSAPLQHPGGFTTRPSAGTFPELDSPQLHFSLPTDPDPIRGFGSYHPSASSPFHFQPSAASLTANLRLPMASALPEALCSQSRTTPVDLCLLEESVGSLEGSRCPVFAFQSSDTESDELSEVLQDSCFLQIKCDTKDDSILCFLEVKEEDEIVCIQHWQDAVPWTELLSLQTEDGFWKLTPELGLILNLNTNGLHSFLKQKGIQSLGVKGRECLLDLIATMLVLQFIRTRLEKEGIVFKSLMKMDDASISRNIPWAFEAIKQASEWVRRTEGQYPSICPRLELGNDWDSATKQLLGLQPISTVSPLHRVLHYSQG
Sequence of Zinc finger CCCH-type antiviral protein 1 (Homo sapiens) (Q7Z2W4 whole entry): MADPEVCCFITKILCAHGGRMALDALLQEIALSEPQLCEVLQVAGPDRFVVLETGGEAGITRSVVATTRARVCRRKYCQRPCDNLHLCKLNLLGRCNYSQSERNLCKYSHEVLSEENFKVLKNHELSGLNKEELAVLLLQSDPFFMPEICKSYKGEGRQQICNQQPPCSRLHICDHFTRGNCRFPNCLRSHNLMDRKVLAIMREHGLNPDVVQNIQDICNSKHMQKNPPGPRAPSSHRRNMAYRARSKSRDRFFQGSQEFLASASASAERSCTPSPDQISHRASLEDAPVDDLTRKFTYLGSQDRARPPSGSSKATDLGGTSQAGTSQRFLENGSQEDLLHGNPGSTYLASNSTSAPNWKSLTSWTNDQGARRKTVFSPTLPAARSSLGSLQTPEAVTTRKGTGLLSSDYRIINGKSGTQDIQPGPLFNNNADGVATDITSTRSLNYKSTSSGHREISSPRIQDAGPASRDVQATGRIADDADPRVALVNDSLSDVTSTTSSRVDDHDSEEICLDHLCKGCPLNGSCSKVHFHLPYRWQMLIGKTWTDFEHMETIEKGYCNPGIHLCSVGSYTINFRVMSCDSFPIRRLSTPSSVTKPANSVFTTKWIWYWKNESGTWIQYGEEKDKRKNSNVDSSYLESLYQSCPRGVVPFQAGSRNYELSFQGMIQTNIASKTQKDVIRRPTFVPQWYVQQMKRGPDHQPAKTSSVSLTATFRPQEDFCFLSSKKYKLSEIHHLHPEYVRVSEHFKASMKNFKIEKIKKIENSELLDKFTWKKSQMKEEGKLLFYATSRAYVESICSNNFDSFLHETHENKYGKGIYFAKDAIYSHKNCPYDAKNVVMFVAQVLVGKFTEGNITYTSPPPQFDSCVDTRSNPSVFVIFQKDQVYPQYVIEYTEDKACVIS

SMILES	IC50 ([6]; read-out: IC50) [µM]	IC50 ([6]; read-out: pIC50 (converted)) [µM]	also measured
NC(=O)c1ccc(Oc2ccc(C(N)=O)cc2)cc1			ΔTm [1]: 0.72 °C; IC50 [2]: > 10 µM; ΔTm [3]: 0.4 °C; ΔTm [4]: 3.8 °C; IC50 [5]: 23 µM
Cc1cc(C)cc(COc2ccc(C(N)=O)cc2)c1	4.5	4.57	
NC(=O)c1ccc(OCc2cccc(F)c2)cc1	3.3	3.31	
NC(=O)c1ccc(COc2ccc(C(N)=O)cc2)cc1	2		
CCOc1ccc(C(N)=O)cc1	3.5	3.39	
NC(=O)c1ccc(OCCOc2ccccc2)cc1	1.9	1.95	
NC(=O)c1ccc(Oc2ccccc2F)cc1	1.7	1.7	
NC(=O)c1ccc(Oc2ccc(N)cc2)cc1	1.3	1.26	
NC(=O)c1ccc(Oc2ccc(O)cc2)cc1	1.8	1.74	
NC(=O)c1ccc(OCc2ccccc2Br)cc1	3.8	3.8	
NC(=O)c1ccc(OC(=O)c2ccccc2)cc1	7.3	7.24	
NC(=O)c1ccc(OCc2cccc3ccccc23)cc1	1.4	1.45	
COc1ccc(Oc2ccc(C(N)=O)cc2)cc1	1.4	1.38	
NC(=O)c1ccc(Oc2ccccc2)cc1	1.1	1.15	
NC(=O)c1ccc(OCc2ccccc2)cc1	1.4	1.35	
NC(=O)c1ccc(OCc2ccccn2)cc1	1.35	1.35	
CC(C)Oc1ccc(C(N)=O)cc1	1.3	1.26	
NC(=O)c1ccc(OCc2ccc(F)cc2)cc1	7.9	7.94	
Cc1ccc(COc2ccc(C(N)=O)cc2)cc1	9.3	9.33	
NC(=O)c1ccc(OC2CCC2)cc1	0.72	0.724	
